Laboratory results from patent publication US20080275134A1, “Methods for Treatment of Retinal Degenerative Disease” (University of Washington, priority 2005, published 2008).

What was measured:
[1] = system: regeneration of vision chromophore (11-cis-retinal); test: regeneration of 11-cis-retinal in mouse eyes after gavage and light bleach, HPLC retinoid analysis; type: in vivo
Method: Mice were gavaged with all-trains-Ret-NH2, exposed to intense light for 20 min, and then allowed to recover in the dark for 5 hours. The total amount of different forms of retinoids in all experiments was unchanged. […] For this experiment mice were treated with both 9-cis-retinol and all-trans-Ret-NH2, and bleached after 24 hours, and were allowed to recover for 5 hours in the dark. The presence of 9-cis-retinal was confirmed in treated animals (see peaks 4 and 4′ in FIG. 4A bottom panel, corresponding to syn- and anti-9-cis-retinal oximes, respectively). 11-cis-Retinal was not reduced and/or esterified after treatment with Ret-NH2. […] This supports the idea that Ret-NH2 is a specific inhibitor of the isomerization reaction.
A. Chromatographic separation of nonpolar retinoids from WT mouse eyes. Mice were gavaged with all-trans-Ret-NH2 24 hours prior to bleaching for 20 min at 150 cd·m^−2 W in the Ganzfeld chamber. Regeneration of 11-cis-retinal was allowed for 24 hours in the dark, and retinoids were extracted from the eye and separated by normal phase HPLC as described in Materials and Methods. The peaks were identified based on elution time and absorption spectra correspond to the following retinoids: 1, all-trans-retinyl esters; 2,2′, syn- and anti-11-cis-retinal oximes; 3, syn-all-trans-retinal oxime; 4,4′, syn- and anti-9-cis-retinal oximes; 5, all-trans-retinol. B. Changes of 11-cis-retinal oxime levels at increasing doses of all-trans-Ret-NH2 during 5 hours or 24 hours of dark adaptation. Square indicates the level of 11-cis-retinal oximes that was present in mice gavaged with vegetable oil without retinoids just after bleaching, and arrow indicates the increase of visual chromophore during 5 hours of dark adaptation. Triangles correspond to the level of 11-cis-retinal found in the mice gavaged with 50 mg/kg of 13-cis-RA. C and D. Single flash ERG responses of increasing intensity for all-trans-Ret-NH2 treated mice and control mice. Serial responses to increasing flash stimuli were obtained for all-trans-Ret-NH2 treated and control mice for selected intensities (C) and plotted as a function of a-wave and b-wave versus varying light intensities under dark-adapted conditions (D) before bleach and at 5 hours and 24 hours after bleach. The dark-adapted mice were bleached with intense constant illumination (150 cd·m^−2) for 20 min. […] SE bars are shown.
Chromatographic separation of nonpolar retinoids from WT mouse eyes. Mice were gavaged with 100 mg/kg of all-trans-Ret-NH2 24 hours prior to bleaching. Mice were next exposed to 500 cd m^−2 for 48 min bleaching in the Ganzfeld chamber. Regeneration of 11-cis-retinal was allowed for 24 hours in the dark, and retinoids were extracted from the eye and separated by normal phase HPLC as described in Materials and Methods. The peaks identified based on elution time and absorption spectra correspond to the following retinoids: 1, all-trans-retinyl esters; 2,2′, syn- and anti-1-cis-retinal oximes; 3,3′ syn- and anti-all-trans-retinal oximes; 4, all-trans-retinol.
Mice were gavaged with the solution of inhibitor in vegetable oil (control—non-treated, RPN—retinylpalmitamide, RAN—retinylacetamide, Ret—NH2-all-trans-retinylamine), kept in dark for 16 hours, then light stimulated and kept in dark for additional 5 hours before their eyes were analyzed.
Mouse retinoid extraction and analysis—Retinoid analysis was performed under dim red light as described previously (Maeda et al., J. Neurochem 85:944-956, 2003; Van Hooser et al., J Biol Chem 277:19173-82, 2002). Mice were gavaged with retinoids as described previously (Van Hooser et al., J Biol Chem 277:19173-82, 2002).

isomerase = molecular target: T1, isomerase (Bos taurus, UniProt Q28175); test: isomerase reaction: 11-cis-retinol production by RPE microsomes from all-trans-retinol; type: biochemical, bovine
T1 construct: Purified RPE microsomes were the source of the enzymes; from tissue; host or cells: bovine retinal pigment epithelium microsomes
T1 sequence (Q28175 2-533 limits assumed): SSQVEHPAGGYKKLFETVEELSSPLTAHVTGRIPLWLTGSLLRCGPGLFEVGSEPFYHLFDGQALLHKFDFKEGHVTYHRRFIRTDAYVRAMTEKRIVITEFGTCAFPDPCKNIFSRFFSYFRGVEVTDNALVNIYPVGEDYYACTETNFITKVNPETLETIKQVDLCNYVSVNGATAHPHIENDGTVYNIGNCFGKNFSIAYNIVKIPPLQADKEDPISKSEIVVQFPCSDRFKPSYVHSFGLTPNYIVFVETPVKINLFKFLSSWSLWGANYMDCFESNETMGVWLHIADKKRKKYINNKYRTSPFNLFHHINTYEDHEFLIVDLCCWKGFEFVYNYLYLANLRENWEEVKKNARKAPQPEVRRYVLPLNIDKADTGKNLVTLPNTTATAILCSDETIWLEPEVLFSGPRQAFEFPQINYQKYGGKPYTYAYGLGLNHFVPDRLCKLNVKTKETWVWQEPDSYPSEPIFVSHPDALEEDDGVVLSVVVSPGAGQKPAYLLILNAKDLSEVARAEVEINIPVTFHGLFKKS
Method: To test if 11-cis-retinylamine (11-cis Ret-NH2) affects isomerization and esterification, an in vitro assay was employed. In this assay both of the all-trans-retinyl esters formed in the reaction catalyzed by LRAT and 11-cis-retinol production by isomerase were measured (6). Purified RPE microsomes were the source of the enzymes, and all-trans-retinol was the substrate. […] Inhibition of isomerization by Ret-NH2 is not due to binding of CRALBP or competition with 11-cis-retinol for binding to CRALBP. […] An increased concentration of all-trans-retinol lowered the level of inhibition, as illustrated in FIG. 2B. […] Dixon's and Lineweaver-Burk plots in the standard assay conditions yielded Ki=0.1 μM for Ret-NH2 when all-trans-retinol (KM=0.3 μM) was assumed to be a substrate. […] This estimated value reflects the very potent nature of the inhibition by 11-cis-Ret-NH2.
Materials—Fresh bovine eyes were obtained from a local slaughterhouse (Schenk Packing Co., Inc., Stanwood, Wash.). Preparation of bovine RPE microsomes was performed according to previously described methods (Stecher et al., J Biol Chem 274:8577-85, 1999). All chemicals were purchased from Sigma-Aldrich (St. Louis, Mo.). 11-cis-Retinal was obtained from Dr. Rosalie Crouch (Charleston, S.C.).
Reaction conditions for isomerase and LRAT reaction—The isomerase reaction was performed essentially as described previously (Stecher et al., J Biol Chem 274:8577-85, 1999). The reaction was carried out in 10 mM BTP buffer, pH 7.5, 1% BSA, containing 1 mM ATP and 6 μM apo-CRALBP. To investigate inhibition properties of Ret-NH2 and its derivatives, RPE microsomes were preincubated for 5 min in 37° C. with the indicated compound in 10 mM BTP buffer, pH 7.5, 1% BSA, 1 mM ATP prior to addition of apo-CRALBP and all-trans-retinol. Ret-NH2 and its derivatives were delivered to the reaction mixture in 1 μl of DMF, and the same volume of DMF was added to the control reaction. Each experiment was performed three times in duplicate. The average values were used and the standard deviations were calculated.

Row | Structure (SMILES) | IC50 of chromophore recovery, 5 hours recovery ([1]; 20 min high-intensity light, 5 hours dark) | IC50 of chromophore recovery, 24 hours recovery ([1]; 20 min high-intensity light, 24 hours dark) | recovery of chromophore after all 11-cis-retinal is photoisomerized ([1]; longer light treatment (100 mg/kg, 500 cd m^-2 for 48 min, 24 hours dark)) | Ki (isomerase; Dixon's and Lineweaver-Burk plots, standard assay conditions, all-trans-retinol assumed to be substrate, estimated value) | mode of isomerase inhibition (isomerase; initial rate vs concentrations of all-trans-retinol and 11-cis-Ret-NH2) | change in amount of Ret-NH2 between start and end of the assay (HPLC) (isomerase; time course of the in vitro isomerase assay) | retinoid levels in the eye without light exposure ([1]; 50 mg/kg, not exposed to light, after 30 hours) | 11-cis-retinal in the eye after bleach and dark recovery ([1]; gavage, intense light 20 min, 5 hours in the dark) | levels of all-trans-retinyl esters in the eye ([1]; gavage, intense light 20 min, 5 hours in the dark, vs controls) | uptake, transport or oxidation of 9-cis-retinol ([1]; mice given 9-cis-retinol and all-trans-Ret-NH2, bleached after 24 hours, 5 hours dark) | IC50 (isomerase; RPE microsomes, all-trans-retinol substrate, read-out: IC50, inhibition of 11-cis-retinol production)
1 | CC1=C(/C=C/C(C)=C/C=C/C(C)=C/CN)C(C)(C)CCC1 [Ret-NH2, Retinylamine] | 2 mg/kg | 24 mg/kg | completely blocks recovery of chromophore | 100 nM | reversible and can be competed out by all-trans-retinol | ≤ 5% |  |  |  |  | 
2 | CC1=C(/C=C/C(C)=C/C=C/C(C)=C/CN)C(C)(C)CCC1 [all-trans-Ret-NH2, all-trans-retinylamine] |  |  |  |  |  |  | normal levels of retinoids | only a residual amount | elevated | did not affect | 500 nM
